Earlier results as cited in US11528929B2, “Composition for treatment of overactive bladder” (priority 2019, dated 2022).

Settings: pH at 50% bound and 50% in free form

isoelectric pH (dissociation point): 3.41
Structure (SMILES): O=C(O)CC(O)C(=O)O (stereo not shown) [malic acid]
